Drawing on PubChem BioAssay (NCI), this text covers GI50 and TGI for 12 compounds.

Among the test systems are A498 renal; CAKI-1 renal; CCRF-CEM leukemia; COLO 205 colon; M14 melanoma; NCI-H460 lung; OVCAR-8 ovarian; SF-268 CNS; TK-10 renal; SR leukemia.
Common to all, as to assay: NCI-60 cell line screen, 48 h

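Cultured in 96-well plates, cells were exposed to test compound for 48 hours across five concentrations. GI50 marks 50% less growth. TGI: concentration producing complete growth inhibition.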

For the compound `C=C1C(=O)O[C@H]2[C@H]1CC/C(Cn1cc(-c3ccccc3C(F)(F)F)nn1)=C\CC[C@@]1(C)O[C@@H]21`, the GI50 in the test with A498 renal was 3.86 µM; in the test on CAKI-1 renal, 1310 nM; in the test on CCRF-CEM leukemia, 0.767 µM; in the test on COLO 205 colon, 1980 nM; in the test with M14 melanoma it was 2150 nM; with NCI-H460 lung, 3.97 µM. Besides, the GI50 is 2230 nM in the test with OVCAR-8 ovarian, 2090 nM in the test with SF-268 CNS and 1710 nM in the test on TK-10 renal. Further, the TGI in the test on A498 renal worked out at 15.9 µM; in the test on CAKI-1 renal, 2.63 µM; in the test on CCRF-CEM leukemia, 10.1 µM; in the test with COLO 205 colon it was 3.81 µM; with M14 melanoma, 5.13 µM; with NCI-H460 lung, 17.7 µM. Further, the TGI with OVCAR-8 ovarian came out at 6.97 µM; with SF-268 CNS, 5.25 µM; in the test with TK-10 renal, 3.2 µM.

Regarding `O=C(NC12CC3CC(CC(C3)C1)C2)C(=O)c1c[nH]c2ccccc12`, the TGI in the test on CCRF-CEM leukemia amounted to 73.6 µM; in the test with COLO 205 colon, 33.5 µM; in the test with M14 melanoma, 29.3 µM; in the test on NCI-H460 lung it was 25.7 µM; in the test on SF-268 CNS, 30.4 µM; with SR leukemia, 48.7 µM. Also, in the test on TK-10 renal, the TGI stood at 44.5 µM.

For `Oc1ccc2oc3ncc(Br)c(-c4ccccc4)c3c2c1`, the GI50 in the test with CAKI-1 renal is above 100000 nM; in the test on CCRF-CEM leukemia, above 100 µM; in the test on M14 melanoma, above 100000 nM; with NCI-H460 lung it was above 100 µM; in the test with OVCAR-8 ovarian, above 100000 nM; with SF-268 CNS, above 100000 nM. Further, the GI50 was 30.4 µM with SR leukemia and above 100000 nM in the test on TK-10 renal. Moreover, the TGI in the test with CAKI-1 renal, with CCRF-CEM leukemia, with M14 melanoma, in the test on NCI-H460 lung, in the test on OVCAR-8 ovarian and in the test with SF-268 CNS was above 100 µM in each case. For the same compound, the TGI in the test on SR leukemia and in the test on TK-10 renal was above 100 µM throughout.

For `Cc1cc2c(C)nn(Cc3ccc(Cl)cc3)c2c(C#N)c1C`, the TGI with CCRF-CEM leukemia, with COLO 205 colon, with OVCAR-8 ovarian, in the test with SF-268 CNS, in the test with SR leukemia and in the test on TK-10 renal was above 100 µM each time.

`O=Cc1c(O)c(C(=O)Nc2ccc3[nH]c(=O)[nH]c3c2)cc2ccccc12`: the TGI in the test with A498 renal, in the test with CAKI-1 renal, with CCRF-CEM leukemia, in the test on COLO 205 colon, in the test on M14 melanoma and in the test with NCI-H460 lung was above 100 µM each time. The TGI in the test with OVCAR-8 ovarian, in the test with SF-268 CNS and in the test on TK-10 renal was above 100 µM each time.

As to `O=c1cccccc1[O-].O=c1cccccc1[O-].O=c1cccccc1[O-].[La+3]`, in the test with A498 renal, the GI50 is 23.6 µM. Further, the TGI with A498 renal was 90.1 µM; in the test on CAKI-1 renal it was above 100 µM; in the test with CCRF-CEM leukemia, 51.3 µM; in the test with M14 melanoma, 53.8 µM; in the test with NCI-H460 lung it was above 100 µM; in the test on OVCAR-8 ovarian, 51.5 µM. For the same compound, the TGI in the test on TK-10 renal turned out to be 67.9 µM.

Consider `CC(C)OP(=O)(NC(=S)c1ccccc1)OC(C)C`, for which the TGI in the test with A498 renal, with CAKI-1 renal, in the test on CCRF-CEM leukemia, in the test with COLO 205 colon, in the test with M14 melanoma and in the test on NCI-H460 lung was above 100 µM in each case. Further, the TGI in the test on OVCAR-8 ovarian, in the test with SF-268 CNS and in the test with TK-10 renal was above 100 µM in each case.

Take `O=c1c(-c2ccccc2)coc2cc(OC/C(=N/O)c3ccccc3)ccc12`: the GI50 was 16.5 µM in the test with A498 renal; 4.22 µM in the test on CCRF-CEM leukemia; 26500 nM in the test on COLO 205 colon; 14400 nM with M14 melanoma; 11 µM with NCI-H460 lung; 17300 nM with OVCAR-8 ovarian. Also, the GI50 in the test on SF-268 CNS is 13500 nM; in the test on TK-10 renal it was 13100 nM. Moreover, the TGI in the test with A498 renal was 33.4 µM; in the test with CCRF-CEM leukemia, above 100 µM; with COLO 205 colon, 72.6 µM; in the test with M14 melanoma, 39.7 µM; with NCI-H460 lung, 26.9 µM; with OVCAR-8 ovarian it was 50.8 µM. For the same compound, the TGI in the test with SF-268 CNS stood at 28.7 µM; with TK-10 renal it was 38.4 µM.

On to `CN1C(=O)C2C(C1=O)C1(O)c3ccccc3C2(N)c2ccccc21` (stereo unspecified), for which the TGI in the test with A498 renal, in the test with CAKI-1 renal, in the test on CCRF-CEM leukemia, in the test with COLO 205 colon, in the test on M14 melanoma and in the test with NCI-H460 lung was above 100 µM throughout. Further, the TGI with OVCAR-8 ovarian, in the test on SF-268 CNS and in the test with TK-10 renal was above 100 µM in each case.

As for `CCOC(=O)c1c2c(n3ccccc13)C(=O)c1ncccc1C2=O`, the GI50 in the test with CAKI-1 renal was 301 nM; in the test on CCRF-CEM leukemia it was 3.06 µM; with COLO 205 colon it was 1650 nM; in the test with M14 melanoma it was 35.4 nM; with OVCAR-8 ovarian, 58.1 nM; with SF-268 CNS, 47.4 nM. For the same compound, the GI50 in the test with SR leukemia was 0.0159 µM; in the test with TK-10 renal it was 354 nM. In addition, the TGI in the test with CAKI-1 renal was 28.5 µM; with CCRF-CEM leukemia it was above 100 µM; with COLO 205 colon it was 4.93 µM; in the test with M14 melanoma, 2.94 µM; in the test on OVCAR-8 ovarian, 6 µM; in the test on SF-268 CNS, 23.3 µM. For the same compound, the values for the TGI in the test on SR leukemia and with TK-10 renal were above 100 µM and 20.2 µM, respectively.

In the case of `O=C(O)CCc1nn2c(nc1=O)sc1ccc3ccccc3c12`, the TGI in the test with CAKI-1 renal, with CCRF-CEM leukemia, with COLO 205 colon, in the test on M14 melanoma, in the test on NCI-H460 lung and in the test with OVCAR-8 ovarian was above 100 µM throughout. The TGI in the test on SF-268 CNS, with SR leukemia and in the test on TK-10 renal was above 100 µM each time.

In the case of `CC1(C)C2C=CC1C(=O)CC2` (stereo unspecified), the TGI in the test with A498 renal, in the test on CAKI-1 renal, in the test on CCRF-CEM leukemia, in the test on M14 melanoma, with NCI-H460 lung and in the test with OVCAR-8 ovarian was above 100 µM throughout. The TGI with SF-268 CNS and with TK-10 renal was above 100 µM throughout.
